# Assay results reported in patent US7485623B2 (priority 2002, dated 2009).
# How the values were obtained:
# [1] = test system: estrogen receptors; conditions: in vitro; cited from earlier work
# [2] = molecular target: T1, estrone sulphatase (Homo sapiens, UniProt P08842); conditions: mammary cancer cell lines; cited from earlier work
# T1 construct: estrone sulphatase activity in mammary cancer cell lines
# T1 sequence (P08842 22-583): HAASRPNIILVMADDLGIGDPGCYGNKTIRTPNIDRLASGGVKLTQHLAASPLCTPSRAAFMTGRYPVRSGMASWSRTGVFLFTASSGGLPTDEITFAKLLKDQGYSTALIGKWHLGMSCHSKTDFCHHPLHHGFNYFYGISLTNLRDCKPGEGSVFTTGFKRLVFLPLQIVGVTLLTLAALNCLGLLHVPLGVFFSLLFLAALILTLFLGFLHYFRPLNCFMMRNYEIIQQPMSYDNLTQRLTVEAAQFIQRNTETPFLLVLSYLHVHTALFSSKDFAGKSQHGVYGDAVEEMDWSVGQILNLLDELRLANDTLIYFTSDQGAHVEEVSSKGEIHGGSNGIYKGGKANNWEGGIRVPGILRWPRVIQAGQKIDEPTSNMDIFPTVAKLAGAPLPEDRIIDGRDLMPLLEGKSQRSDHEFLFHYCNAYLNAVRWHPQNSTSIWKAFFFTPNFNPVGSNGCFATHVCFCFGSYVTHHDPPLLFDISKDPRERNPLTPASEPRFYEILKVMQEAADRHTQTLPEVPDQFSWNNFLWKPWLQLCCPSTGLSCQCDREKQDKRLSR
# [3] = Example 3: plasma pharmacokinetics of 4-hydroxy tamoxifen gel in healthy premenopausal women; conditions: for AUC0-24, Mean ± SD / Cav = AUC0-24/24, Mean ± SD / tmax, Mean ± SD / Cmax, Mean ± SD / t1/2 (range): last administration; for Cmax, Mean ± SD: day 25 of second cycle
# Method: Each participant applied the gel daily for the duration of two menstrual cycles.
# At the end of a menstrual cycle, each patient received a single dose, after which serial blood samples were collected at 0, 0.5, 1, 1.5, 2, 3, 4, 6, 12, 18, 24, 36, 48, and 72 hours.
# On the first day of the following menstruation, treatment, which consisted of daily application of the gel over two menstrual cycles, began. Blood samples were collected 24 hours following the morning application of gel on days 7, 20 and 25 of the first and second cycles. On the last day of administration, day 25 of the second menstrual cycle, serial blood samples were collected prior to application and at 0.5, 1, 1.5, 2, 3, 4, 6, 12, 18, 24, 36, 48, and 72 hours after application of the gel.
# [4] = topical application
# [5] = Example 1: radioactivity in blood and urine after percutaneous [3H]-labeled drug; conditions: for share of radioactivity in blood: 24 hours after percutaneous [3H]-4-hydroxy tamoxifen
# Method: (§1) The patients received [^3H]-labeled drug applied directly on the affected breasts at specified intervals ranging from 12 hours to 7 days before surgery to excise diseased tissue. Breast tissue from three regions: the tumor, tissue immediately surrounding the tumor, and normal tissue, was excised and immediately frozen in liquid nitrogen. Additionally, plasma and urine samples were obtained at scheduled intervals and frozen until analysis.
# [6] = Example 1: radioactivity and metabolites in breast tissue after percutaneous [3H]-labeled drug
# Method: as §1
# [7] = oral tamoxifen; cited from earlier work
# [8] = test system: rat liver; conditions: cited from earlier work
# [9] = test system: p53(−) normal human mammary epithelial cells; conditions: cited from earlier work
# [10] = Group 2 (0.5 mg/day gel), seventh day; Group 1 (oral tamoxifen), fifth day; cited from earlier work
# [11] = test system: breast density; conditions: cited from earlier work
# [12] = 0.5 mg/day (n = 12), gel 20 mg/100 g
# [13] = 1 mg/day (n = 8), gel 20 mg/100 g
# [14] = 1 mg/day (n = 12), gel 57 mg/100 g
# [15] = 2 mg/day (n = 12), gel 57 mg/100 g
# [16] = 12 hr after percutaneous trans-[3H]-4-hydroxy tamoxifen
# [17] = 24 hr after percutaneous trans-[3H]-4-hydroxy tamoxifen
# [18] = 36 hr after percutaneous trans-[3H]-4-hydroxy tamoxifen
# [19] = Day 4 after percutaneous trans-[3H]-4-hydroxy tamoxifen
# [20] = Day 7 after percutaneous trans-[3H]-4-hydroxy tamoxifen
compound,measurement,setting,value
"CC/C(=C(\c1ccc(O)cc1)c1ccc(OCCN(C)C)cc1)c1ccccc1 [4-hydroxy tamoxifen, 1-[4-(2-N-dimethylaminoethoxy)phenyl]-1-(4-hydroxyphenyl)-2-phenylbut-1-(Z)-ene]","binding affinity for estrogen receptors, compared with estradiol",[1],a binding affinity similar to estradiol
same,"potency as binding affinity to estrogen receptors, compared with tamoxifen",[1],more potency than tamoxifen
same,effect on estrone sulphatase activity,[2],significant inhibitory effect
same,"AUC0-24, Mean ± SD",[3]; [12],0.2563 ng·h/mL
same,"Cav = AUC0-24/24, Mean ± SD",[3]; [12],0.0107 ± 0.0085 ng/mL
same,"tmax, Mean ± SD",[3]; [12],40 ± 81 h
same,"Cmax, Mean ± SD",[3]; [12],0.017 ± 0.0085 ng/mL
same,"AUC0-24, Mean ± SD",[3]; [13],0.3009 ng·h/mL
same,"Cav = AUC0-24/24, Mean ± SD",[3]; [13],0.0125 ± 0.0079 ng/mL
same,"tmax, Mean ± SD",[3]; [13],24 ± 18 h
same,"Cmax, Mean ± SD",[3]; [13],0.021 ± 0.014 ng/mL
same,"AUC0-24, Mean ± SD",[3]; [14],0.619 ± 0.466 ng·h/mL
same,"Cav = AUC0-24/24, Mean ± SD",[3]; [14],0.0258 ± 0.0194 ng/mL
same,t1/2 (range),[3]; [14],(58-118) hr
same,"tmax, Mean ± SD",[3]; [14],12.8 ± 14.9 h
same,"Cmax, Mean ± SD",[3]; [14],0.0351 ± 0.0224 ng/mL
same,"AUC0-24, Mean ± SD",[3]; [15],0.998 ± 0.653 ng·h/mL
same,"Cav = AUC0-24/24, Mean ± SD",[3]; [15],0.0416 ± 0.0272 ng/mL
same,t1/2 (range),[3]; [15],(49-101) hr
same,"tmax, Mean ± SD",[3]; [15],11.8 ± 12.3 h
same,"Cmax, Mean ± SD",[3]; [15],0.0516 ± 0.0317 ng/mL
same,detectability in plasma after the last gel application,[3]; in vivo,remained detectable 72 hours after the last gel application
same,exposure versus dose,"[3]; topical application, 0.5, 1, and 2 mg",increases with dose
same,systemic effects,[4],no detectable laboratory or clinical evidence of systemic effects
same,share of radioactivity in blood,[5],68%
same,urinary elimination compared to percutaneous tamoxifen,[5]; percutaneous administration,Peak urinary elimination occurred at a later time
same,% Metabolites in Breast Tissue,[6]; [16],97%
same,% Metabolites in Breast Tissue,[6]; [17],94%
same,% Metabolites in Breast Tissue,[6]; [18],78%
same,% Metabolites in Breast Tissue,[6]; [19],70%
same,% Metabolites in Breast Tissue,[6]; [20],65%
same,metabolism in intracellular sites of breast tissue,[6]; cytosolic and nuclear fractions,remained unmetabolized except for limited isomerization from the trans to the cis form
same,subcellular distribution in breast tissue,[6]; percutaneous application,concentrated predominantly in the cytosolic and nuclear fractions of breast tissue
same,retention in the breast,[6]; percutaneous application of [3H]-labeled drug,approximately 4 days
CCC(=C(c1ccc(O)cc1)c1ccc(OCCNC)cc1)c1ccccc1 [N-Desmethyl-4-Hydroxy Tamoxifen],share of radioactivity in blood,[5],18%
same,% Metabolites in Breast Tissue,[6]; [16],2%
same,% Metabolites in Breast Tissue,[6]; [17],4%
same,% Metabolites in Breast Tissue,[6]; [18],14%
same,% Metabolites in Breast Tissue,[6]; [19],20%
same,% Metabolites in Breast Tissue,[6]; [20],16%
"CC/C(=C(\c1ccccc1)c1ccc(OCCN(C)C)cc1)c1ccccc1 [[^3H]-tamoxifen, reference compound]",time of plateau of radioactivity in blood,[5]; percutaneous application,2 days
CC/C(=C(\c1ccccc1)c1ccc(OCCNC)cc1)c1ccccc1 [N-Desmethyl tamoxifen],% Metabolites in Breast Tissue,[6]; [18],<1%
same,% Metabolites in Breast Tissue,[6]; [19],<1%
same,% Metabolites in Breast Tissue,[6]; [20],3-4%
CC(C)(c1ccc(O)cc1)c1ccc(O)cc1 [Bisphenol],share of radioactivity in blood,[5],11%
same,% Metabolites in Breast Tissue,[6]; [16],1%
same,% Metabolites in Breast Tissue,[6]; [17],2%
same,% Metabolites in Breast Tissue,[6]; [18],3%
same,% Metabolites in Breast Tissue,[6]; [19],8%
same,% Metabolites in Breast Tissue,[6]; [20],8%
CC/C(=C(\c1ccc(O)cc1)c1ccc(OCCN(C)C)cc1)c1ccccc1 [Trans 4-hydroxy tamoxifen],percentage of radioactivity in breast tissue as isomer of 4-hydroxy tamoxifen,[6]; day 7,32%
CC/C(=C(\c1ccccc1)c1ccc(OCCN(C)C)cc1)c1ccccc1 [tamoxifen],side effects reported by patients,[7],"hot flashes, vaginal discharge, depression, amenorrhea, and nausea"
same,effect on estrone sulphatase activity,[2],little or no effect
same,rat liver carcinogenicity,[8],potent rat liver carcinogen
same,initiation of apoptosis,[9],initiates apoptosis
same,side effects reported by one person,[10],hot flashes and mild vaginitis
same,women with decreased breast parenchyma,[11]; 20 mg/day after surgery for breast cancer (Son et al.),59.8%
same,change of mammographic pattern,"[11]; contralateral breasts of postmenopausal breast cancer patients, 20 mg/day",significant change toward a less dense mammographic pattern
same,decrease of breast parenchyma in premenopausal women,"[11]; premenopausal women, 20 mg/day (Son et al.)",87%
